Assay results as given in the NIST ThermoML archive (doi:10.1016/j.jct.2019.03.014).

What was measured:
[1] = Ring tensiometer
[2] = xn = mol fraction of the nth substance listed; conditions: Ring tensiometer

CCCCO [butan-1-ol]
[1]
Conditions	surface tension liquid-gas [mN/m]
293.2 K	24.7
303.2 K	23.8
313.2 K	22.8
323.2 K	21.6
333.2 K	20.3

CCCCO [butan-1-ol] + OCC(O)CO
[2], x1 = 1
Conditions	surface tension liquid-gas [mN/m]
293.2 K	24.7
303.2 K	23.8
313.2 K	22.8
323.2 K	21.6
333.2 K	20.3

CCO [ethanol]
[1]
Conditions	surface tension liquid-gas [mN/m]
293.2 K	22.3
303.2 K	21.4
313.2 K	20.6
323.2 K	19.8
333.2 K	19

CCO [ethanol] + OCC(O)CO
[2], x1 = 1
Conditions	surface tension liquid-gas [mN/m]
293.2 K	22.3
303.2 K	21.4
313.2 K	20.6
323.2 K	19.8
333.2 K	19

OCC(O)CO [glycerol]
[1]
Conditions	surface tension liquid-gas [mN/m]
293.2 K	63.1
298.2 K	62.9
303.2 K	62.4
313.2 K	62
323.2 K	61.1
333.2 K	60.5

OCC(O)CO [glycerol] + CC(C)O
surface tension liquid-gas [mN/m], [2]
Conditions	x2 = 0	x2 = 0.1	x2 = 0.2	x2 = 0.3	x2 = 0.4	x2 = 0.5	x2 = 0.6	x2 = 0.7	x2 = 0.8	x2 = 0.9
293.2 K	63.1	45.7	34.3	28.8	26.7	25.6	24.8	23.9	22.8	21.9
303.2 K	62.4	45.1	34	28.5	26.2	25.1	24.2	23.4	22.3	21.4
313.2 K	62	44.4	33.6	28	25.8	24.6	23.7	23	21.8	20.9
323.2 K	61.1	43.9	32.9	27.6	25.5	24.1	23.5	22.5	21.2	20
333.2 K	60.5	43.2	32.2	27.2	25	23.7	22.6	22.1	20.6	19.1

OCC(O)CO [glycerol] + CCCCO
surface tension liquid-gas [mN/m], [2]
Conditions	x2 = 0	x2 = 0.1	x2 = 0.2	x2 = 0.3	x2 = 0.4	x2 = 0.5	x2 = 0.6	x2 = 0.7	x2 = 0.8	x2 = 0.9
293.2 K	63.1	33.1	28	26.4	26.2	25.9	25.7	25.4	25.2	24.8
303.2 K	62.4	32.9	27.7	26.2	26	25.7	25.4	25.1	24.8	24.3
313.2 K	62	32.8	27.3	26.1	25.8	25.5	25.1	24.8	24.5	23.7
323.2 K	61.1	32.7	27	25.6	25.2	24.7	24.3	24	23.7	22.7
333.2 K	60.5	32.5	26.7	25.3	24.8	24.3	23.7	23.2	22.9	21.6
